In US9802897B2, “Amidopyridinol derivative or pharmaceutically acceptable salt thereof and pharmaceutical composition comprising same as active component” (Research Cooperation Foundation of Yeungnam University, priority 2013, dated 2017):
Where “and” joins values, the source holds several entries; their conditions need not be identical. Identical values can stand only once.

Assays:
HUVEC cells = test: Scavenging of VEGF-induced ROS in HUVEC cells (DCF-DA fluorescence); type: cell-based; details: pre-treated 3 hours, induced by VEGF 15 minutes, vs VEGF-induced cells
Protocol: To measure scavenging effects of ROS in HUVEC cells that were induced by VEGF, 2′,7′-dichlorofluorescein diacetate (DCF-DA) was used. […] After […] at a concentration of 1×10^5, each of which well was coated with 0.2% gelatin, DCF-DA was cultured for 24 hours. Meanwhile, Compounds 8a and 8b were pre-treated for 3 hours, induced by VEGF for 15 minutes, and then, washed with PBS (pH 7.4) three times. Then, 10 μM of DCF-DA was placed in a EBM-2 medium to be treated for 30 minutes in a dark room. Then, DCF-DA was washed again with PBS three times, and then, subjected to measure intensity of fluorescence in the cells by using a fluorescence microscope.

HT-29 cells / U937 cells = test: TNF-α-induced adhesion of HT-29 intestinal epithelial cells and U937 mononuclear cells; type: cell-based, human; details: Homo sapiens; 1 μM, pre-treated 1 hour; TNF-α 10 ng/ml; read-out: Inhibitory rates (%)
Summary of the method: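 HT-29 cells were pretreated with compound for 1 h in serum-free medium, then stimulated with TNF-α 10 ng/ml for 3 h at 37 °C. BCECF-AM-labelled U937 cells were co-incubated for 1 h at 37 °C. Non-adherent cells were washed off, and lysates in 0.1% Triton X-100/0.1 M Tris were read by fluorescence.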

A549 lung cancer cells = test: CAM inoculated with A549 lung cancer cells: angiogenesis and tumor growth; type: in vivo, chicken; details: for Inhibition rates of angiogenesis (%) / Inhibition rates of tumor growth (%): A549 on CAM, 5 days; for inhibitory effects on angiogenesis and tumor growth (in words): at each density
Protocol: To confirm inhibitory effects on angiogenesis through in vivo experiments, the CAM analysis was carried out (refer to Nguyen M et al., Microvascular Res., 47, pp 31-40, 1994). A fertilized egg of a chicken was cultured in conditions maintaining a temperature of 37° C. and relative humidity of 55%. On the 9th day of the culturing, a first small hole was made on an air sac part using a hypodermic needle (Green Cross Medical Corp., Korea), and then, a second hole was made on a flat part of the fertilized egg to make a window thereon. Air was removed through the first hole, i.e., the air sac part, and accordingly, the CAM was separated from the shell of the fertilized egg. Then, a grinding wheel (Multipro 395JA, Dremel, Mexico) was used to cut the air sac part, thereby making a window thereon. Meanwhile, A549 lung cancer cells were mixed with matrigel at a ratio of 1:1, and then, the mixture was treated with Compounds 8a, 8b, and 8g, respectively, followed by being inoculated at a density of 1.5×10^6 cells/CAM.
After 5 days of the inoculation, the CAM part on which tumors were formed was isolated, and then, washed with PBS. The Stemi SV6 stereomicroscope (Carl Zeiss, Germany) and the Image-Pro Plus software (Media Cybernetics; Silver Spring, Md., USA) were used to capture images of the CAM part, so as to measure the number of the blood vessels and to analyze data obtained therefrom.

[1] = tested on: VEGF-induced angiogenesis in chicken chorioallantoic membrane (CAM); test: CAM analysis of VEGF-induced angiogenesis; type: in vivo; details: for inhibition in vivo at 0.01 nmol/CAM: Gallus gallus, 72 h, VEGF (20 ng/CAM) + Compound (0.01 nmol/CAM), number of blood vessels after 3 days, read-out: Inhibitory rates (%); for ID50 against inhibition of angiogenesis: VEGF-induced CAM angiogenesis
Summary of the method: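 Fertilized chicken eggs incubated at 37° C, 55% humidity; on day 10 a window was opened and a cortisone acetate (3 mg/mL)-treated filter disk carrying VEGF at 20 ng/CAM was placed on vessels. Compounds in DMSO/PBS were applied at several concentrations for 3 days; blood vessel number under the disk was counted by stereomicroscopy.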

SMILES | intensity of fluorescence in the cells (ROS) (HUVEC cells) | inhibition at 1 µM (HT-29 cells / U937 cells) | Inhibition rates of angiogenesis (%) (A549 lung cancer cells; 0.001 pmol/CAM) | Inhibition rates of tumor growth (%) (A549 lung cancer cells; 0.001 pmol/CAM) | Inhibition rates of angiogenesis (%) (A549 lung cancer cells; 0.01 pmol/CAM) | Inhibition rates of tumor growth (%) (A549 lung cancer cells; 0.01 pmol/CAM) | Inhibition rates of angiogenesis (%) (A549 lung cancer cells; 0.1 pmol/CAM) | Inhibition rates of tumor growth (%) (A549 lung cancer cells; 0.1 pmol/CAM) | Inhibition rates of angiogenesis (%) (A549 lung cancer cells; 1.0 pmol/CAM) | Inhibition rates of tumor growth (%) (A549 lung cancer cells; 1.0 pmol/CAM) | inhibitory effects on angiogenesis and tumor growth (in words) (A549 lung cancer cells) | inhibition in vivo at 0.01 nmol/CAM [1] | ID50 against inhibition of angiogenesis [1]
CC(=O)Nc1nc(C)c(O)c(C)c1C [Compound 8a, N-(5-hydroxy-3,4,6-trimethylpyridine-2-yl)acetamide] | significant decrease in the intensity of fluorescence | 55.4% | 12.7 ± 6.5% | 20.3 ± 5.9% | 23.8 ± 5.2 % | 34.2 ± 5.3 % | 30.4 ± 3.7 % | 37.9 ± 8.0 % | 41.2 ± 1.4 % | 47.7 ± 4.1 % | inhibited angiogenesis upon tumorigenesis, as well as tumor growth | 84.8 ± 10% | 1.7 pg/CAM and 8.7 fmol/CAM
CCCCCCCCCCCC(=O)Nc1nc(C)c(O)c(C)c1C [Compound 8b, N-(5-hydroxy-3,4,6-trimethylpyridine-2-yl)dodecanamide] | significant decrease in the intensity of fluorescence | 55.8% | 12.2 ± 4.4% | 21.7 ± 8.9% | 18.0 ± 3.2 % | 26.0 ± 10.0% | 21.3 ± 2.0 % | 31.3 ± 7.3 % | 24.7 ± 2.2 % | 38.2 ± 7.2 % | inhibited angiogenesis upon tumorigenesis, as well as tumor growth | 59.3 ± 5.4% | 5.0 pg/CAM and 14.9 fmol/CAM
